Test systems include ACHN; BT-549; CAKI-1; EKVX; Hs-578T; M14; MDA-MB-231; MDA-MB-435; MDA-N; NCI-H460; PC-3; SF-295; SR; T47D; TK-10; UACC-257; DLD-1; KM-20L2; SNB-78; DMS-273.
What all share (assay): NCI tumour cell line growth inhibition, 48 h

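Cells were grown in 96-well plates and exposed to each compound for 48 hours at five concentrations; endpoints were interpolated linearly between bracketing concentrations, or set to the highest concentration if not reached. At the GI50, growth is halved.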 The source made the active and inactive calls. No stated cut-off is given here; in the data, active = GI50 up to about 1.1 µM and inactive = higher.

Here are results for 15 molecules from ChEMBL document CHEMBL1201862, “PubChem BioAssay data set” (2004).

Consider `CCCC[C@H]1[C@@H](OCOc2ccccc2)COC(=O)N1[C@H](C)c1ccccc1`, for which the GI50 in the assay with ACHN was 18.2 µM (inactive); with BT-549, 19.7 µM (inactive); in the assay with CAKI-1, 13.5 µM (inactive); with EKVX, 25.4 µM (inactive); in the assay with Hs-578T it was 20.5 µM (inactive); in the assay on M14, 12.6 µM (inactive). Besides, the GI50 in the assay on MDA-MB-231 was 13.3 µM (inactive); in the assay with MDA-MB-435, 13.3 µM (inactive); with MDA-N, 11.9 µM (inactive); in the assay with NCI-H460, 12.6 µM (inactive); in the assay on PC-3, 6.1 µM (inactive); in the assay on SF-295, 11.9 µM (inactive). Also, the GI50 in the assay on SR was 8.49 µM (inactive); with T47D, 11.3 µM (inactive); in the assay on TK-10, 15.6 µM (inactive); in the assay on UACC-257, 9.66 µM (inactive).
As for `COc1cccc(N2C(=O)C3c4[nH]c5ccc(C)cc5c4C4CCC(C(C)(C)C)CC4C3C2=O)c1` (stereo not given), the GI50 in the assay with ACHN is > 10 µM (inactive); in the assay with CAKI-1, 9.84 µM (inactive); with EKVX, 4.84 µM (inactive); in the assay with Hs-578T, 3.19 µM (inactive); in the assay with M14 it was 8 µM (inactive); in the assay with MDA-MB-231 it was 5.48 µM (inactive). In addition, the GI50 in the assay on MDA-MB-435 was > 10 µM (inactive); in the assay on MDA-N it was > 10 µM (inactive); with NCI-H460, 2.21 µM (inactive); in the assay on PC-3, 4.43 µM (inactive); with SF-295, > 10 µM (inactive); with SR it was 2 µM (inactive). Besides, the GI50 in the assay on T47D is 7.28 µM (inactive); in the assay on TK-10, > 10 µM (inactive).
Regarding `COC1C(O)CC(OC2CC(Oc3cc4cc5c(c(O)c4c(O)c3C)C(=O)[C@@H](OC3CC(OC4CC(OC6CC(C)(O)C(OC(C)=O)C(C)O6)C(O)C(C)O4)C(O)C(C)O3)[C@H]([C@H](OC)C(=O)[C@@H](O)[C@@H](C)O)C5)OC(C)C2OC(C)=O)OC1C` (stereo not given in full) [CHROMOMYCIN], the GI50 in the assay with ACHN is 4.71e-05 µM (active); in the assay on BT-549, 1.49e-05 µM (active); in the assay with CAKI-1, < 0.01 µM (active); in the assay on DLD-1 it was 0.00849 µM (active); in the assay on EKVX, 0.00532 µM (active); in the assay with Hs-578T, 2.13e-05 µM (active). Further, the GI50 in the assay on KM-20L2 is 0.00397 µM (active); in the assay with MDA-MB-231 it was 3e-05 µM (active); in the assay on MDA-MB-435, 2.44e-05 µM (active); in the assay with MDA-N, 3.15e-05 µM (active); in the assay with NCI-H460 it was < 0.0133 µM (active); in the assay on PC-3, 3.57e-05 µM (active). The GI50 with SF-295 was 0.0139 µM (active); in the assay with SNB-78 it was 0.00337 µM (active); in the assay with SR, < 0.01 µM (active); with T47D it was < 0.01 µM (active); in the assay with TK-10, 0.000119 µM (active); in the assay on UACC-257, < 0.01 µM (active).
Take `CC1=CC2c3cccc4[nH]cc(c34)CC2N(C)C1` (stereo not given): the GI50 in the assay on CAKI-1 was 66.7 µM (inactive); in the assay with DLD-1 it was > 37.8 µM (inactive); in the assay on DMS-273, > 100 µM (inactive); with EKVX, > 100 µM (inactive); in the assay with KM-20L2 it was > 76.2 µM (inactive); in the assay with NCI-H460, 56.5 µM (inactive). In addition, the GI50 was 53.3 µM (inactive) in the assay with SF-295, > 100 µM (inactive) in the assay with SNB-78 and 22.4 µM (inactive) in the assay with UACC-257.
With `Cc1ccccc1OCC(COC(=O)Nc1ccccc1)OC(=O)Nc1ccccc1` (stereo not given), the GI50 with ACHN is > 100 µM (inactive); with CAKI-1, 26.5 µM (inactive); with DLD-1, 28.8 µM (inactive); in the assay with DMS-273 it was 32.1 µM (inactive); with EKVX, > 100 µM (inactive); in the assay on KM-20L2, 52.2 µM (inactive). In addition, the GI50 was 28.1 µM (inactive) in the assay on M14; 20.2 µM (inactive) in the assay with NCI-H460; 51.3 µM (inactive) in the assay with SF-295; 22.2 µM (inactive) with SNB-78; 12.1 µM (inactive) in the assay with SR; > 100 µM (inactive) in the assay with TK-10. Besides, in the assay with UACC-257, the GI50 was > 100 µM (inactive).
As for `Nc1ncc2c(n1)-c1ccccc1OC2`, the GI50 is > 100 µM (inactive) in the assay with DLD-1; > 80.5 µM (inactive) with DMS-273; 94.4 µM (inactive) with EKVX; > 100 µM (inactive) in the assay with KM-20L2; > 100 µM (inactive) in the assay on NCI-H460; > 100 µM (inactive) in the assay with SF-295. For the same molecule, the GI50 in the assay on SNB-78 and in the assay with UACC-257 was > 100 µM (inactive) each time.
With `CN(C)CCNC(=O)c1cccc2c1C(=O)c1ccccc1C2=O`, the GI50 with CAKI-1 is 32.4 µM (inactive); in the assay on DLD-1, 25.5 µM (inactive); with DMS-273, 23.7 µM (inactive); with EKVX it was 63.8 µM (inactive); with KM-20L2, 28 µM (inactive); with NCI-H460, 29.6 µM (inactive). The GI50 is 33.7 µM (inactive) with SF-295, 24.9 µM (inactive) in the assay with SNB-78 and 19.5 µM (inactive) in the assay on UACC-257.
For `CC1=C[C@]2(CC(C)C3C(CC4(C)C5CCC6C(C)(C)C(=O)CC[C@@]67C[C@@]57CC[C@]34C)O2)OC1=O` (stereo not given in full), the GI50 in the assay on ACHN was 24.6 µM (inactive); in the assay with CAKI-1, 16.9 µM (inactive); in the assay with DLD-1 it was 11 µM (inactive); with DMS-273, 3.95 µM (inactive); in the assay with EKVX, 44.8 µM (inactive); in the assay with M14 it was 47.3 µM (inactive). The GI50 is 19.4 µM (inactive) in the assay with NCI-H460; 25.3 µM (inactive) with SF-295; 23.2 µM (inactive) in the assay on SNB-78; 3.82 µM (inactive) in the assay with SR; 26 µM (inactive) with TK-10; 8.63 µM (inactive) in the assay with UACC-257.
`CC(/C=N/N=C(N)N)=N\N=C(N)N`: the GI50 is 22.8 µM (inactive) with ACHN; 243 µM (inactive) in the assay on BT-549; 48.9 µM (inactive) with DLD-1; 31.6 µM (inactive) in the assay on DMS-273; 29.1 µM (inactive) with EKVX; 33.2 µM (inactive) in the assay on Hs-578T. For the same molecule, the GI50 is 12.8 µM (inactive) in the assay on KM-20L2; 43.6 µM (inactive) in the assay with M14; 22.6 µM (inactive) with MDA-MB-231; 12.9 µM (inactive) in the assay on MDA-MB-435; 15.2 µM (inactive) with MDA-N; 8.97 µM (inactive) in the assay with NCI-H460. Further, the GI50 was 232 µM (inactive) with PC-3; 92.3 µM (inactive) with SF-295; 13.6 µM (inactive) in the assay on SNB-78; > 57.3 µM (inactive) in the assay on SR; 1.91 µM (inactive) with T47D; 44.7 µM (inactive) in the assay on TK-10. For the same molecule, the GI50 in the assay with UACC-257 was 140 µM (inactive).
Consider `COc1cc(C(C)O)c(S(=O)(=O)CC(C)O)nn1` (stereo not given), for which the GI50 is > 100 µM (inactive) in the assay with ACHN; > 100 µM (inactive) in the assay on BT-549; > 100 µM (inactive) in the assay on CAKI-1; 75.5 µM (inactive) with EKVX; > 100 µM (inactive) in the assay with Hs-578T; > 100 µM (inactive) in the assay on M14. The GI50 in the assay on MDA-MB-435 was > 100 µM (inactive); in the assay with MDA-N, > 100 µM (inactive); in the assay with NCI-H460 it was > 100 µM (inactive); in the assay on SF-295 it was > 100 µM (inactive); with SR it was 43.6 µM (inactive); in the assay with TK-10, > 100 µM (inactive). Besides, in the assay on UACC-257, the GI50 was > 100 µM (inactive).
For the molecule `CCOC(=O)C(O)(NC(=O)c1ccc(F)cc1)C(F)(F)F` (stereo not given), the GI50 in the assay with ACHN, in the assay with BT-549, with CAKI-1, in the assay on EKVX, in the assay on Hs-578T and with M14 was > 100 µM (inactive) throughout. In addition, the GI50 with MDA-MB-231 is 59.8 µM (inactive); in the assay with MDA-MB-435, > 100 µM (inactive); in the assay with MDA-N, > 100 µM (inactive); in the assay on PC-3, > 100 µM (inactive); with SF-295, > 100 µM (inactive); in the assay with SR it was > 100 µM (inactive). Also, the GI50 in the assay on T47D, in the assay with TK-10 and in the assay on UACC-257 was > 100 µM (inactive) throughout.
In the case of `Cc1c2c(cc3c1[nH]c1ccccc13)C(c1ccc(F)cc1)=NCC2`, the GI50 is 0.796 µM (active) with CAKI-1; 0.851 µM (active) in the assay with DLD-1; 0.63 µM (active) in the assay on DMS-273; 2.07 µM (inactive) in the assay on EKVX; 1.11 µM (active) in the assay with KM-20L2; 0.815 µM (active) in the assay on NCI-H460. Moreover, the values for the GI50 with SF-295, with SNB-78 and in the assay on UACC-257 were 0.869 µM (active), 1.81 µM (inactive) and 1.03 µM (active), respectively.
As for `COc1cc([C@@H]2c3cc4c(c(O[C@@H]5O[C@H]6CO[C@@H](C)O[C@H]6[C@H](O)[C@@H]5O)c3C[C@H]3COC(=O)[C@@H]32)OCO4)cc(OC)c1O`, the GI50 is 27.7 µM (inactive) in the assay with DLD-1; 4.63 µM (inactive) in the assay with DMS-273; 5.55 µM (inactive) in the assay on EKVX; 34.9 µM (inactive) in the assay with KM-20L2; 12.1 µM (inactive) in the assay with NCI-H460; 3.48 µM (inactive) in the assay on SF-295. Also, the GI50 in the assay on SNB-78 is 6.03 µM (inactive); in the assay on UACC-257, 5.93 µM (inactive).
On to `Cc1[nH]c(=O)[nH]c(=O)c1C(=O)N(CCO)Cc1ccccc1`, for which the GI50 in the assay with ACHN is > 100 µM (inactive); with BT-549, > 100 µM (inactive); in the assay with EKVX, > 100 µM (inactive); with Hs-578T, 14.2 µM (inactive); in the assay with M14, > 100 µM (inactive); in the assay on MDA-MB-231 it was > 100 µM (inactive). Moreover, the GI50 in the assay with MDA-MB-435 is > 100 µM (inactive); in the assay on MDA-N it was > 100 µM (inactive); in the assay with NCI-H460 it was > 100 µM (inactive); in the assay with PC-3, 24.6 µM (inactive); in the assay with SF-295, 35.5 µM (inactive); in the assay on SR it was > 100 µM (inactive). Also, the values for the GI50 with T47D, with TK-10 and with UACC-257 were > 100 µM (inactive), > 100 µM (inactive) and 34.7 µM (inactive), respectively.
Take `CCOC(C)OC1CC(n2cc(C)c(=O)[nH]c2=O)OC1CO` (stereo not given): the GI50 in the assay on ACHN, with DLD-1, with DMS-273, in the assay on EKVX, in the assay with KM-20L2 and in the assay with M14 was > 100 µM (inactive) each time. For the same molecule, the GI50 in the assay with NCI-H460, in the assay with SF-295, with SNB-78, in the assay with SR, in the assay with TK-10 and in the assay with UACC-257 was > 100 µM (inactive) throughout.
